Reference: patent US8436171B2, “Amino substituted pyrazines as inhibitors or protein kinases” (Akinion Pharmaceuticals AB, priority 2008, dated 2013)
Where a name gives a salt, the structure may show the parent alone.

Tests used:
recombinant human FLT3 = target: T1, recombinant human FLT3 (Homo sapiens, UniProt P36888); experiment: In vitro FLT3 kinase assay (IMAP fluorescence polarization); format: biochemical; conditions: mean, n = 4-8; ATP 100 μM; FAM-CSKtide 100 nM; read-out: IC50 (nM), typical mean IC50 values determined in the FLT3 kinase assay
T1 construct: N-terminal GST tagged, amino acids 564-end; GST (N); purchased Upstate 14-500
T1 sequence (P36888 564-993 limits assumed): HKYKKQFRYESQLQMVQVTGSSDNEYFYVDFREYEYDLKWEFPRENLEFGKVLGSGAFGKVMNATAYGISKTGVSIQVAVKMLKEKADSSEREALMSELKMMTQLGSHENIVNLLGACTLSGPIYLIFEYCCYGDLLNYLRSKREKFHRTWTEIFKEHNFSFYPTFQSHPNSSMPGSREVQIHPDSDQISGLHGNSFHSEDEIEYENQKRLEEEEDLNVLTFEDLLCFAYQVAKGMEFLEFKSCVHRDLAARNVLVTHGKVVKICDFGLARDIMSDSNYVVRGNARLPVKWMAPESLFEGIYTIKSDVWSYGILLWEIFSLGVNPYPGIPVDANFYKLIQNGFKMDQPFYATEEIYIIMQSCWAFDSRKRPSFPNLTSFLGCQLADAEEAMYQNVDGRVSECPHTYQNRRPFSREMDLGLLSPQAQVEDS
Method: The compounds according to the invention were evaluated for their inhibition of FLT3 by the following method:
In Vitro FLT3 Kinase Assay
An enzyme inhibition assay for the tyrosine kinase domain of FLT3 was established using a fluorescence polarization technique, Immobilized Metal Ion Affinity-Based Fluorescence Polarization (IMAP) from Molecular Devices.
Briefly: kinase activity is measured by incubating a fluorescent peptide substrate with the kinase domain. After completion of the kinase reaction a binding buffer is added. Upon phosphorylation of the substrate, the fluorescent peptide gains the ability to bind to a metal-coated nanoparticle. When the substrate is bound to the nanoparticle, the rotational is speed of the peptide is reduced, and thus the fluorescence polarization (fp) becomes high. Compounds inhibiting the kinase activity of the enzyme will result in a low degree of phosphorylated substrate and a low fp-signal.
IMAP Buffer kit with Progressive Binding System (Molecular Devices, #R8124): Reaction buffer: 10 mM Tris-HCL pH 7.2 with 10 mM MgCl2, 0.05% NaN3 and 0.01% Tween 20. Prior to use DTT was added to 1 mM DTT final concentration (complete reaction buffer).
Binding solution was prepared from buffer kit according to the manufactures recommendations. Binding Reagent was diluted 1:1500 in 40% Binding buffer A and 60% Binding buffer B.
FLT3 enzyme used was recombinant human FLT3 from Upstate (#14-500) 7.2 U/ml, N-terminal GST tagged, amino acids 564-end.
Substrate peptide used: FAM-CSKtide from Molecular Devices (#R7269) 20 μM, 5FAM-KKKKEEIYFFFG-NH2. […]
• Pipette into 96-well black ½ area plate: • 5 μl compound dilution or vehicle • 5 μl substrate peptide (400 nM) • 5 μl enzyme (0.05 U/ml) or complete reaction buffer for non specific background (NSB) • 5 μl ATP (400 μM) • Cover the plate and incubate at room temperature with gentle agitation II. […] Fluorescence Polarization analysis: • Measure fluorescein using a plate reader (Analyst AD) excitation wave length 485 and emission wave length 530, reading with integration time of 0.1 sec. […]

[1] = system: AML cell-line MV4-11 (FLT3-ITD); experiment: Viability and proliferation assay in AML cell line MV4-11; format: cell-based; conditions: Homo sapiens; MV4-11 cells, 72 hours, viable cells by flow cytometry; read-out: Cell data MV4-11 (nM), EC50 values determined in AML-cell line
Method: AML cell-line MV4-11 carries the FLT3-internal tandem duplication. This cell-line has been widely used for evaluating the effect of FLT3-kinase inhibitors on viability and proliferation.
Briefly, cells are seeded at a low density into 96-well plates. Serial dilution of compounds is added and the cells are incubated for 72 hours. Total number of viable cells is measured using flow cytometry at the end of treatment, and the effect of the compounds is calculated as % inhibition compared to vehicle treated cells.
All cells were cultured under standard cell culture conditions, at 37° Celsius in an atmosphere of 5% CO2 in 90% humidity.
AML-cell line MV4-11 was cultured in DMEM Glutamax high glucose ([…] glucose) supplemented with 10% Fetal Bovine Serum (FBS) from Invitrogen. Cells were subcultured twice weakly, growing to a density of approx 2 million cells per ml prior to subcultivation.
For viability determination, 3000-5000 cells were seeded in 50 microliter culture medium into a 96-well plate. Serial dilutions 1:3 of compounds from 10 mM DMSO stock were made in serumfree culture medium supplemented with penicillin and streptomycin. 50 microliter of the serial dilutions were added to the cell-suspension. The final concentration of compounds was from 5 micromolar to 0.8 nM, or from 500 nM to 0.08 nM respectively. The DMSO concentration was kept constant at 0.05%.
At the end of the treatment, 100 microliter viability reagent (Guava ViaCount) was added to each well and number of cells and viability was determined using flow cytometry (Guava 96-well ViaCount assay). Typically the vehicle treated (0.05% DMSO) cell-line cells had doubled three times during the experiment.
% Survival was calculated compared to the vehicle treated cells at the end of experiment. EC50 values were determined using the equation (A+((B−A)/(1+((C/x)^D)))) where A equals min, B equals max, C equals EC50 and D equals Hill slope.

IC50 (recombinant human FLT3) [nM] | EC50 [1] [nM] | Compound
60 | 184 | Nc1ncc(-c2ccncc2)nc1NCCc1c[nH]c2ccccc12 [Example 15, N3-[2-(1H-Indol-3-yl)ethyl]-5-pyridin-4-ylpyrazine-2,3-diamine, trifluoroacetate]
560 | 373 | c1cc(-c2cncc(Nc3ccc4cc[nH]c4c3)n2)ccn1 [Example 32, N-(6-Pyridin-4-ylpyrazin-2-yl)-1H-indol-6-amine]

Compound | IC50 (recombinant human FLT3) [nM] | EC50 [1] [nM]
NC(=O)c1ccc(-c2cncc(N[C@H]3CC[C@H](O)CC3)n2)cc1 [Example 28, 4-{6-[(trans-4-Hydroxycyclohexyl)amino]pyrazin-2-yl}benzamide, trifluoroacetate] | 159 | 178
